Experimental data published in patent US20240041042A1, “1-(PYRIDYL)-5-AZINYLPYRAZOLE DERIVATIVES, AND THEIR USE FOR CONTROL OF UNDESIRED PLANT GROWTH” (Bayer Aktiengesellschaft, priority 2020, published 2024).
Each block holds one compound with its values, some of them ahead of it.

Experiments:
Format in all cases: in vivo
[1] = test system: Matricaria inodora (MATIN); experiment: Pre-emergence herbicidal action against MATIN; conditions: dosage 320 g/ha
In short: (§1)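 Application rates ran to 320 g/ha or lower, with several dosages tested on the same weeds. The compound, as wettable powder or emulsion concentrate, is sprayed pre-emergence onto soil over sown seeds; greenhouse growth follows, and effect is rated visually after roughly 3 weeks.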

Setaria viridis (SETVI) [2] = experiment: Post-emergence herbicidal action against SETVI
In short: (§2)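 Post-emergence greenhouse spray, one-leaf stage, 600 l/ha water plus 0.5% additive; WP or EC formulations; application rates 320 g/ha or lower. Visual % damage vs untreated controls at ~3 weeks.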

[3] = test system: Echinochloa crus-galli (ECHCG); experiment: Pre-emergence herbicidal action against ECHCG
In short: as §1

[4] = test system: Polygonum convolvulus (POLCO); experiment: Post-emergence herbicidal action against POLCO
In short: as §2

[5] = test system: Echinochloa crus-galli (ECHCG); experiment: Post-emergence herbicidal action against ECHCG
In short: as §2

[6] = test system: Pharbitis purpurea (PHBPU); experiment: Post-emergence herbicidal action against PHBPU; conditions: dosage 320 g/ha
In short: as §2

[7] = test system: Amaranthus retroflexus (AMARE); experiment: Post-emergence herbicidal action against AMARE
In short: as §2

[8] = test system: Verconica persica (VERPE); experiment: Pre-emergence herbicidal action against VERPE; conditions: dosage 320 g/ha
In short: as §1

[9] = test system: Alopecurus myosuroides (ALOMY); experiment: Post-emergence herbicidal action against ALOMY; conditions: visual rating about 3 weeks after treatment vs untreated controls (100% = plants have died, 0% = like control plants)
In short: as §2

[10] = test system: Polygonum convolvulus (POLCO); experiment: Pre-emergence herbicidal action against POLCO
In short: as §1

[11] = test system: Verconica persica (VERPE); experiment: Post-emergence herbicidal action against VERPE
In short: as §2

Setaria viridis (SETVI) [12] = experiment: Pre-emergence herbicidal action against SETVI
In short: as §1

Lolium rigidum (LOLRI) [13] = experiment: Pre-emergence herbicidal action against LOLRI
In short: as §1

Lolium rigidum (LOLRI) [14] = experiment: Post-emergence herbicidal action against LOLRI
In short: as §2

Avena fatua (AVEFA) [15] = experiment: Pre-emergence herbicidal action against AVEFA; conditions: visual scoring after about 3 weeks vs untreated controls
In short: as §1

[16] = test system: Alopecurus myosuroides (ALOMY); experiment: Pre-emergence herbicidal action against ALOMY; conditions: scored visually after about 3 weeks, 100% = plants have died
In short: as §1

Viola tricolor (VIOTR) [17] = experiment: Post-emergence herbicidal action against VIOTR
In short: as §2

[18] = test system: Abutilon theophrasti (ABUTH); experiment: Post-emergence herbicidal action against ABUTH; conditions: visual rating about 3 weeks after treatment vs untreated controls (100% = plants have died, 0% = like control plants)
In short: as §2

[19] = test system: Amaranthus retroflexus (AMARE); experiment: Pre-emergence herbicidal action against AMARE; conditions: visual scoring after about 3 weeks vs untreated controls
In short: as §1

Oryza sativa (ORYSA) = conditions: crop plant compatibility, 80 g/ha, effect in comparison to untreated controls
In short: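 Test crops were treated 2 to 3 weeks after sowing, once they reached one leaf, by spraying compound in water with 0.5% additive at 600 l/ha. Visual scoring compared them with untreated controls roughly 3 weeks on, and appendices a, b and c denote different doses.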

Viola tricolor (VIOTR) [20] = experiment: Pre-emergence herbicidal action against VIOTR
In short: as §1

[21] = test system: Abutilon theophrasti (ABUTH); experiment: Pre-emergence herbicidal action against ABUTH; conditions: Dosage column 320 g/ha (title prints 3200 g/ha); scored visually after about 3 weeks; 100% = plants have died
Excerpt: Seeds of monocotyledonous and dicotyledonous weed plants and crop plants are placed in plastic or organic planting pots and covered with soil. The compounds of the invention, formulated in the form of wettable powders (WP) or as emulsion concentrates (EC), are then applied to the surface of the covering soil as aqueous suspension or emulsion with addition of 0.5% additive at a water application rate equivalent to 600 l/ha. After the treatment, the pots are placed in a greenhouse and kept under good growth conditions for the trial plants. After about 3 weeks, the effect of the preparations is scored visually in comparison with untreated controls as percentages. For example, 100% activity=the plants have died, 0% activity=like control plants.
Tables A1 to A13 below show the effects of selected compounds of the general formula (I) on various harmful plants and at an application rate corresponding to 320 g/ha or lower, which were obtained by the experimental procedure mentioned above. The appendices “a”, “b” and “c” give differentiation by dosage used with otherwise the same harmful plants tested.

Avena fatua (AVEFA) [22] = experiment: Post-emergence herbicidal action against AVEFA; conditions: visual rating about 3 weeks after treatment
In short: as §2

[23] = 80 g/ha, visual rating about 3 weeks after treatment vs untreated controls (100% = plants have died, 0% = like control plants)
[24] = 320 g/ha, visual rating about 3 weeks after treatment

Post-emergence action against ORYSA in % (Oryza sativa (ORYSA)): 0%
Structure (SMILES): COC(=O)CNC(=O)[C@@H](C)Oc1nn(-c2ccccn2)c(-c2ccc(F)nc2)c1Cl [Example I-339]
Pre-emergence action against MATIN in % [1]: 100%
Post-emergence action against SETVI in % (Setaria viridis (SETVI) [2]; dosage 80 g/ha): 90%
Post-emergence action against SETVI in % (Setaria viridis (SETVI) [2]; dosage 320 g/ha): 90%
Pre-emergence action against ECHCG in % ([3]; dosage 320 g/ha): 100%
Post-emergence action against POLCO in % ([4]; dosage 80 g/ha): 90%
Post-emergence action against POLCO in % ([4]; dosage 320 g/ha): 90%
Post-emergence action against ECHCG in % ([5]; dosage 80 g/ha): 90%
Post-emergence action against ECHCG in % ([5]; dosage 320 g/ha): 90%
Post-emergence action against PHBPU in % [6]: 80%
Post-emergence action against AMARE in % [7, 23]: 90%
Post-emergence action against AMARE in % [7, 24]: 90%
Pre-emergence action against VERPE in % [8]: 100%
Post-emergence action against ALOMY in % ([9]; 80 g/ha): 90%
Post-emergence action against ALOMY in % ([9]; 320 g/ha): 100%
Pre-emergence action against POLCO in % ([10]; dosage 80 g/ha): 90%
Pre-emergence action against POLCO in % ([10]; dosage 320 g/ha): 100%
Post-emergence action against VERPE in % ([11]; 320 g/ha, VERPE): 90%
Post-emergence action against VERPE in % ([11]; dosage 80 g/ha): 80%
Pre-emergence action against SETVI in % (Setaria viridis (SETVI) [12]; dosage 80 g/ha): 100%
Pre-emergence action against SETVI in % (Setaria viridis (SETVI) [12]; dosage 320 g/ha): 100%
Pre-emergence action against LOLRI in % (Lolium rigidum (LOLRI) [13]; dosage 80 g/ha): 100%
Pre-emergence action against LOLRI in % (Lolium rigidum (LOLRI) [13]; dosage 320 g/ha): 100%
Post-emergence action against LOLRI in % (Lolium rigidum (LOLRI) [14]; dosage 80 g/ha): 90%
Post-emergence action against LOLRI in % (Lolium rigidum (LOLRI) [14]; dosage 320 g/ha): 90%
Pre-emergence action against AVEFA in % (Avena fatua (AVEFA) [15]; 80 g/ha): 100%
Pre-emergence action against AVEFA in % (Avena fatua (AVEFA) [15]; 320 g/ha): 100%
Pre-emergence action against ALOMY ([16]; 80 g/ha): 100%
Pre-emergence action against ALOMY ([16]; 320 g/ha): 100%
Post-emergence action against VIOTR in % (Viola tricolor (VIOTR) [17]; 80 g/ha): 90%
Post-emergence action against VIOTR in % (Viola tricolor (VIOTR) [17]; 320 g/ha): 90%
Post-emergence action against ABUTH in % ([18]; 80 g/ha): 80%
Post-emergence action against ABUTH in % ([18]; 320 g/ha): 90%
Pre-emergence action against AMARE in % ([19]; 80 g/ha): 100%
Pre-emergence action against AMARE in % ([19]; 320 g/ha): 100%
Pre-emergence action against VIOTR in % (Viola tricolor (VIOTR) [20]; 320 g/ha, Viola tricolor): 100%
Pre-emergence action against VIOTR in % (Viola tricolor (VIOTR) [20]; dosage 80 g/ha): 100%
Pre-emergence action against ABUTH [21]: 90%
Post-emergence action against AVEFA in % (Avena fatua (AVEFA) [22]; 80 g/ha): 90%
Post-emergence action against AVEFA in % (Avena fatua (AVEFA) [22]; 320 g/ha): 90%

Post-emergence action against ORYSA in % (Oryza sativa (ORYSA)): 0%
Structure (SMILES): COC(=O)[C@@H](C)Oc1nn(-c2ccnc(Cl)c2)c(-c2ccc(F)nc2)c1Br [III-22]
Pre-emergence action against MATIN in % [1]: 100%
Post-emergence action against SETVI in % (Setaria viridis (SETVI) [2]; dosage 80 g/ha): 100%
Post-emergence action against SETVI in % (Setaria viridis (SETVI) [2]; dosage 320 g/ha): 100%
Pre-emergence action against ECHCG in % ([3]; dosage 80 g/ha): 100%
Pre-emergence action against ECHCG in % ([3]; dosage 320 g/ha): 100%
Post-emergence action against ECHCG in % ([5]; dosage 80 g/ha): 100%
Post-emergence action against ECHCG in % ([5]; dosage 320 g/ha): 100%
Post-emergence action against PHBPU in % [6]: 80%
Post-emergence action against AMARE in % [7, 23]: 90%
Post-emergence action against AMARE in % [7, 24]: 90%
Pre-emergence action against VERPE in % [8]: 100%
Post-emergence action against ALOMY in % ([9]; 80 g/ha): 100%
Post-emergence action against ALOMY in % ([9]; 320 g/ha): 100%
Pre-emergence action against POLCO in % ([10]; dosage 320 g/ha): 100%
Post-emergence action against VERPE in % ([11]; 320 g/ha, VERPE): 90%
Post-emergence action against VERPE in % ([11]; dosage 80 g/ha): 80%
Pre-emergence action against SETVI in % (Setaria viridis (SETVI) [12]; dosage 80 g/ha): 100%
Pre-emergence action against SETVI in % (Setaria viridis (SETVI) [12]; dosage 320 g/ha): 100%
Pre-emergence action against LOLRI in % (Lolium rigidum (LOLRI) [13]; dosage 80 g/ha): 100%
Pre-emergence action against LOLRI in % (Lolium rigidum (LOLRI) [13]; dosage 320 g/ha): 100%
Post-emergence action against LOLRI in % (Lolium rigidum (LOLRI) [14]; dosage 320 g/ha): 100%
Pre-emergence action against AVEFA in % (Avena fatua (AVEFA) [15]; 80 g/ha): 80%
Pre-emergence action against AVEFA in % (Avena fatua (AVEFA) [15]; 320 g/ha): 100%
Pre-emergence action against ALOMY ([16]; 80 g/ha): 100%
Pre-emergence action against ALOMY ([16]; 320 g/ha): 100%
Post-emergence action against VIOTR in % (Viola tricolor (VIOTR) [17]; 80 g/ha): 90%
Post-emergence action against VIOTR in % (Viola tricolor (VIOTR) [17]; 320 g/ha): 90%
Post-emergence action against ABUTH in % ([18]; 80 g/ha): 90%
Post-emergence action against ABUTH in % ([18]; 320 g/ha): 90%
Pre-emergence action against AMARE in % ([19]; 80 g/ha): 90%
Pre-emergence action against AMARE in % ([19]; 320 g/ha): 100%
Pre-emergence action against VIOTR in % (Viola tricolor (VIOTR) [20]; 320 g/ha, Viola tricolor): 100%
Pre-emergence action against VIOTR in % (Viola tricolor (VIOTR) [20]; dosage 80 g/ha): 90%
Pre-emergence action against ABUTH [21]: 100%
Post-emergence action against AVEFA in % (Avena fatua (AVEFA) [22]; 80 g/ha): 100%
Post-emergence action against AVEFA in % (Avena fatua (AVEFA) [22]; 320 g/ha): 100%
